The values below come from US20070128217A1 (priority 2003, published 2007).

For test [1], the system named is antibodies in sera from SARS patients (sera 1a, 1b, 2, 6, 37, 62, London, SARS-yellow, SARS-green). The class given is binding, human. Further details: Binding of serum 6 to linear peptides of protein X1 of SARS-CoV Urbani / Binding of serum 37 to linear peptides of protein X1 of SARS-CoV Urbani / Binding of serum 6 to looped/cyclic peptide (PEPSCAN-ELISA) / Binding of serum 37 to looped/cyclic peptide (PEPSCAN-ELISA) / Binding of serum 37 to looped/cyclic peptides of protein X1 of SARS-CoV Urbani / Binding of serum 6 to linear peptides of protein X2 / Binding of serum 37 to linear peptides of protein X2 / Binding of serum 37 to looped/cyclic peptides of protein X2 of SARS-CoV Urbani / Binding of serum 6 to linear peptides of protein M of SARS-CoV Urbani / Binding of serum 37 to linear peptides of protein M of SARS-CoV Urbani / Binding of serum 6 to looped/cyclic peptides of protein M of SARS-CoV Urbani / Binding of serum 37 to looped/cyclic peptides of protein M of SARS-CoV Urbani / Binding of serum 6 to linear peptides of protein X3 of SARS-CoV Urbani / Binding of serum 37 to linear peptides of protein X3 of SARS-CoV Urbani / Binding of serum 37 to looped/cyclic peptides of protein X3 of SARS-CoV Urbani / Binding of serum 6 to linear peptides of protein X4 of SARS-CoV Urbani / Binding of serum 37 to linear peptides of protein X4 of SARS-CoV Urbani / Binding of serum 37 to looped/cyclic peptides of protein X4 of SARS-CoV Urbani / Binding of serum 6 to linear peptides of protein X5 of SARS-CoV Urbani / Binding of serum 37 to linear peptides of protein X5 of SARS-CoV Urbani / Binding of serum 37 to looped/cyclic peptides of protein X5 of SARS-CoV Urbani / Binding of serum 6 to linear peptides of protein N of SARS-CoV Urbani / Binding of serum 37 to linear peptides of protein N of SARS-CoV Urbani / Binding of serum 6 to linear peptide (PEPSCAN-ELISA) / Binding of serum 1a to looped/cyclic peptides of protein N of SARS-CoV Urbani / Binding of serum 1b to looped/cyclic peptides of protein N of SARS-CoV Urbani / Binding of serum 2 to looped/cyclic peptides of protein N of SARS-CoV Urbani / Binding of serum 6 to looped/cyclic peptides of protein N of SARS-CoV Urbani / Binding of serum 37 to looped/cyclic peptides of protein N of SARS-CoV Urbani / Binding of serum 62 to looped/cyclic peptides of protein N of SARS-CoV Urbani / Binding of serum London to looped/cyclic peptides of protein N of SARS-CoV Urbani / Binding of serum SARS-green to looped/cyclic peptides of protein N of SARS-CoV Urbani: unit not given here.

Test [2] relates to control sera (pooled serum of ten healthy LUMC hospital workers; commercial negative donor pooled serum from the Dutch bloodbank). The test is classed as binding, human. Further details: Binding of Control serum LUMC to linear peptides / Binding of Control serum Blood-bank to linear peptides / Binding of Control serum LUMC to looped peptides / Binding of Control Serum Blood-Bank to Looped peptides / Binding of Control serum LUMC to linear peptides of the protein M of SARS-CoV Urbani / Binding of Control serum Blood-bank to linear peptides of the protein M of SARS-CoV Urbani / Binding of Control serum LUMC to looped peptides of the protein M of SARS-CoV Urbani / Binding of Control Serum Blood-Bank to Looped peptides of the protein M of SARS-CoV Urbani: unit not given here.

Test [3] relates to rabbit serum obtained by immunizing a rabbit with the SARS-CoV strain Frankfurt 1. The class given is binding. Details: Binding of a rabbit serum to linear peptides / Binding of a rabbit serum to looped peptides / Rabbit serum linear peptides / Rabbit serum looped peptides / Binding of a rabbit serum to linear peptides of protein N of SARS-CoV Urbani (Rabbit serum linear peptides) / Binding of a rabbit serum to looped/cyclic peptides of protein N of SARS-CoV Urbani (Rabbit serum looped peptides): unit not given here.

In the case of ISPKFTTSLSLHKLL, in test [1], the “Binding of serum 1a to linear peptides of protein X2” value was found to be 0.5, the “Binding of serum 1a to looped/cyclic peptides of protein X2 of SARS-CoV Urbani” value is on record as 0.5, the “Binding of serum 1b to linear peptides of protein X2” value is reported as 0.4 and the “Binding of serum 1b to looped/cyclic peptides of protein X2 of SARS-CoV Urbani” value turned out to be 0.5. Besides, in test [1], the “Binding of serum 2 to linear peptides of protein X2” value turned out to be 0.4, the “Binding of serum 2 to looped/cyclic peptides of protein X2 of SARS-CoV Urbani” value was found to be 0.4, the “Binding of serum 6 to linear peptides of protein X2” value stood at 0.5 and the “Binding of serum 6 to looped/cyclic peptides of protein X2 of SARS-CoV Urbani” value is given as 0.4. In test [1], the “Binding of serum 37 to linear peptides of protein X2” value was 0.5, the “Binding of serum 37 to looped/cyclic peptides of protein X2 of SARS-CoV Urbani” value stood at 0.4, the “Binding of serum 62 to linear peptides of protein X2” value is listed as 0.6 and the “Binding of serum 62 to looped/cyclic peptides of protein X2 of SARS-CoV Urbani” value amounted to 0.7. In test [1], the “Binding of serum London to linear peptides of protein X2” value is 0.4, the “Binding of serum London to looped/cyclic peptides of protein X2 of SARS-CoV Urbani” value was found to be 0.3, the “Binding of serum SARS-green to linear peptides of protein X2” value came out at 0.5 and the “Binding of serum SARS-green to looped/cyclic peptides of protein X2 of SARS-CoV Urbani” value is reported as 0.2. For the same sequence, in test [1], the “Binding of serum SARS-yellow to linear peptides of protein X2” value worked out at 0.4 and the “Binding of serum SARS-yellow to looped/cyclic peptides of protein X2 of SARS-CoV Urbani” value came out at 0.3. Moreover, in test [2], the “Binding of Control Serum Blood-Bank to Looped peptides” value is on record as 0.7, the “Binding of Control serum Blood-bank to linear peptides” value is recorded as 0.7, the “Binding of Control serum LUMC to linear peptides” value was found to be 0.3 and the “Binding of Control serum LUMC to looped peptides” value is 0.5. Besides, in test [3], the “Binding of a rabbit serum to linear peptides” value stood at 0.3 and the “Binding of a rabbit serum to looped peptides” value is given as 0.4.
With ITMTTVYHITVSQIQ, in test [1], the “Binding of serum 1a to linear peptides of protein X2” value is 0.7, the “Binding of serum 1a to looped/cyclic peptides of protein X2 of SARS-CoV Urbani” value stood at 0.4, the “Binding of serum 1b to linear peptides of protein X2” value came out at 0.2 and the “Binding of serum 1b to looped/cyclic peptides of protein X2 of SARS-CoV Urbani” value is given as 0.5. In addition, in test [1], the “Binding of serum 2 to linear peptides of protein X2” value worked out at 0.3, the “Binding of serum 2 to looped/cyclic peptides of protein X2 of SARS-CoV Urbani” value came out at 0.2, the “Binding of serum 6 to linear peptides of protein X2” value was 0.5 and the “Binding of serum 6 to looped/cyclic peptides of protein X2 of SARS-CoV Urbani” value is 0.2. Moreover, in test [1], the “Binding of serum 37 to linear peptides of protein X2” value is reported as 0.7, the “Binding of serum 37 to looped/cyclic peptides of protein X2 of SARS-CoV Urbani” value was found to be 0.4, the “Binding of serum 62 to linear peptides of protein X2” value was 0.4 and the “Binding of serum 62 to looped/cyclic peptides of protein X2 of SARS-CoV Urbani” value is reported as 0.5. Further, in test [1], the “Binding of serum London to linear peptides of protein X2” value is given as 0.5, the “Binding of serum London to looped/cyclic peptides of protein X2 of SARS-CoV Urbani” value is given as 0.2, the “Binding of serum SARS-green to linear peptides of protein X2” value is recorded as 0.2 and the “Binding of serum SARS-green to looped/cyclic peptides of protein X2 of SARS-CoV Urbani” value is listed as 0.3. Moreover, in test [1], the “Binding of serum SARS-yellow to linear peptides of protein X2” value turned out to be 0.0 and the “Binding of serum SARS-yellow to looped/cyclic peptides of protein X2 of SARS-CoV Urbani” value stood at 0.3. In addition, in test [2], the “Binding of Control Serum Blood-Bank to Looped peptides” value was found to be 0.5, the “Binding of Control serum Blood-bank to linear peptides” value was 0.4, the “Binding of Control serum LUMC to linear peptides” value amounted to 0.4 and the “Binding of Control serum LUMC to looped peptides” value was found to be 0.5. In test [3], the “Binding of a rabbit serum to linear peptides” value is 0.3 and the “Binding of a rabbit serum to looped peptides” value stood at 0.3.
For the sequence ITVSQIQLSLLKVTA, in test [1], the “Binding of serum 1a to linear peptides of protein X2” value was 0.6, the “Binding of serum 1a to looped/cyclic peptides of protein X2 of SARS-CoV Urbani” value was 0.5, the “Binding of serum 1b to linear peptides of protein X2” value came to 0.5 and the “Binding of serum 1b to looped/cyclic peptides of protein X2 of SARS-CoV Urbani” value worked out at 0.5. Further, in test [1], the “Binding of serum 2 to linear peptides of protein X2” value came to 0.4, the “Binding of serum 2 to looped/cyclic peptides of protein X2 of SARS-CoV Urbani” value is recorded as 0.4, the “Binding of serum 6 to linear peptides of protein X2” value came to 0.5 and the “Binding of serum 6 to looped/cyclic peptides of protein X2 of SARS-CoV Urbani” value is given as 1.4. Also, in test [1], the “Binding of serum 37 to linear peptides of protein X2” value was 0.6, the “Binding of serum 37 to looped/cyclic peptides of protein X2 of SARS-CoV Urbani” value turned out to be 0.5, the “Binding of serum 62 to linear peptides of protein X2” value came to 0.4 and the “Binding of serum 62 to looped/cyclic peptides of protein X2 of SARS-CoV Urbani” value is reported as 0.5. For the same sequence, in test [1], the “Binding of serum London to linear peptides of protein X2” value turned out to be 0.4, the “Binding of serum London to looped/cyclic peptides of protein X2 of SARS-CoV Urbani” value was found to be 1.4, the “Binding of serum SARS-green to linear peptides of protein X2” value is reported as 0.1 and the “Binding of serum SARS-green to looped/cyclic peptides of protein X2 of SARS-CoV Urbani” value is recorded as 0.3. For the same sequence, in test [1], the “Binding of serum SARS-yellow to linear peptides of protein X2” value is recorded as 0.7 and the “Binding of serum SARS-yellow to looped/cyclic peptides of protein X2 of SARS-CoV Urbani” value came out at 0.6. In addition, in test [2], the “Binding of Control Serum Blood-Bank to Looped peptides” value is recorded as 0.6, the “Binding of Control serum Blood-bank to linear peptides” value is listed as 0.5, the “Binding of Control serum LUMC to linear peptides” value is listed as 0.6 and the “Binding of Control serum LUMC to looped peptides” value came out at 0.7. Moreover, in test [3], the “Binding of a rabbit serum to linear peptides” value is 0.7 and the “Binding of a rabbit serum to looped peptides” value turned out to be 0.4.
As to IVAALVFLILCFTIK, in test [1], the “Binding of serum 1a to linear peptides of protein X4 of SARS-CoV Urbani” value worked out at 0.6, the “Binding of serum 1a to looped/cyclic peptides of protein X4 of SARS-CoV Urbani” value was determined as 0.7, the “Binding of serum 1b to linear peptides of protein X4 of SARS-CoV Urbani” value is on record as 0.6 and the “Binding of serum 1b to looped/cyclic peptides of protein X4 of SARS-CoV Urbani” value is 0.4. For the same sequence, in test [1], the “Binding of serum 2 to linear peptides of protein X4 of SARS-CoV Urbani” value came to 0.4, the “Binding of serum 2 to looped/cyclic peptides of protein X4 of SARS-CoV Urbani” value is recorded as 0.6, the “Binding of serum 6 to linear peptides of protein X4 of SARS-CoV Urbani” value came to 0.5 and the “Binding of serum 6 to looped/cyclic peptides of protein X4 of SARS-CoV Urbani” value is 1.4. In test [1], the “Binding of serum 37 to linear peptides of protein X4 of SARS-CoV Urbani” value came out at 0.7, the “Binding of serum 37 to looped/cyclic peptides of protein X4 of SARS-CoV Urbani” value stood at 0.7, the “Binding of serum 62 to linear peptides of protein X4 of SARS-CoV Urbani” value is given as 0.7 and the “Binding of serum 62 to looped/cyclic peptides of protein X4 of SARS-CoV Urbani” value is 0.7. Moreover, in test [1], the “Binding of serum London to linear peptides of protein X4 of SARS-CoV Urbani” value is recorded as 0.7, the “Binding of serum London to looped/cyclic peptides of protein X4 of SARS-CoV Urbani” value worked out at 3.0, the “Binding of serum SARS-green to linear peptides of protein X4 of SARS-CoV Urbani” value is given as 0.5 and the “Binding of serum SARS-green to looped/cyclic peptides of protein X4 of SARS-CoV Urbani” value was found to be 0.5. Further, in test [1], the “Binding of serum SARS-yellow to linear peptides of protein X4 of SARS-CoV Urbani” value turned out to be 0.6 and the “Binding of serum SARS-yellow to looped/cyclic peptides of protein X4 of SARS-CoV Urbani” value was determined as 0.7. In test [2], the “Binding of Control Serum Blood-Bank to Looped peptides” value was 0.8, the “Binding of Control serum Blood-bank to linear peptides” value is listed as 0.6, the “Binding of Control serum LUMC to linear peptides” value stood at 0.5 and the “Binding of Control serum LUMC to looped peptides” value turned out to be 0.7. Also, in test [3], the “Rabbit serum linear peptides” value came out at 0.4 and the “Rabbit serum looped peptides” value was determined as 0.6.
